Experimental data reported in patent publication US20230190743A1, “TREATMENT WITH ILEAL BILE ACID TRANSPORTER (IBAT) INHIBITORS FOR INCREASED EVENT-FREE SURVIVAL (EFS)” (Mirum Pharmaceuticals, Inc., priority 2021, published 2023).
Values joined by “and” are separate entries in the source; they are usually repeats but may differ in a detail not shown here. Equal values may be shown once.

Experiments:
Type in all cases: in vivo, human
[1] = tested on: children with ALGS; test: ICONIC study, correlation of pruritus intensity (ItchRO) with cholestasis biomarkers and quality of life
From the text: This study evaluates how change in pruritus intensity correlates with change in cholestasis biomarkers in children with ALGS receiving maralixibat (ICONIC study; NCT02160782, described above). The goal of the present study is to characterize correlations between pruritus, as measured by the Itch-Reported Outcome (ItchRO) Observer tool, and multiple parameters, including sBA and sBA subspecies, autotaxin (ATX), and quality of life measures following maralixibat treatment in children with ALGS. Twenty-nine of the 31 enrolled participants completed 48 weeks of treatment, with 27 evaluated for this analysis.

[2] = tested on: patients with ALGS; test: Phase 2 ICONIC trial, 48-week HRQoL analysis by ItchRO treatment response; design: key to Beta, ItchRO treatment response at week 48 Yes vs No, PedsQL Generic Core Scale / Beta, ItchRO treatment response at week 48 Yes vs No, Family Impact Scale / Beta, ItchRO treatment response at week 48 Yes vs No, Multidimensional Fatigue Scale: regression beta in HRQoL score points (0-100 scale), responders vs not
Method: A retrospective analysis was performed of 48-week data from the Phase 2 ICONIC trial, a study with a 4-week double-blind, placebo-controlled, randomized drug withdrawal period in patients with ALGS. Patients had moderate to severe pruritus as measured using a validated caregiver-reported Itch Reported Outcome (ItchRO) severity assessment tool (0=none to 4=very severe). Clinically meaningful pruritus response was defined as a ≥1 point reduction in the ItchRO, from baseline to week 48. HRQoL was assessed using the Pediatric Quality of Life Inventory Generic Core (PedsQL; 0-100 scale, 100=best quality of life), Family Impact (FI), and Multidimensional Fatigue (MF) scale scores, and were collected via caregiver. The minimal clinically important difference (MCID) for the HRQoL assessments is 5 points. A subset of individual items from the HRQoL scales were also independently selected for assessment with treatment response. HRQoL scores and selected items were assessed at baseline and week 48 and stratified by treatment response status. P-values were calculated using t-tests or ANOVAs. Multivariate linear regression models were used to assess the relationship between the mean change from baseline in HRQoL score (dependent variable) and an indicator for treatment response (independent variable), adjusting for baseline HRQoL. Adjustment for additional baseline covariates was also explored for the following variables: age, gender, bilirubin, rifampicin use, height z-score, weight z-score, ItchRO, and serum bile acid.

[3] = tested on: patients with Alagille syndrome (ALGS); test: 6-year event-free survival analysis, maralixibat cohort versus GALA control group
From the text: Real-world evidence (RWE) analytics continue to advance natural history comparisons in rare diseases. GALA is the largest global clinical research database for […] syndrome (ALGS). Maralixibat (MRX) is an ileal bile acid transporter inhibitor being studied in ALGS. A pre-specified analysis plan applied novel analytical techniques to compare RWE to a MRX cohort with the aim to compare event-free survival (EFS) in patients with ALGS. GALA contains retrospective data for clinical parameters, biochemistries and outcomes. The MRX database comprises of 84 ALGS patients with up to 6 years of data. EFS was defined as the time to first event of hepatic decompensation (variceal bleeding, ascites requiring therapy), surgical biliary diversion, liver transplantation (LT), or death. GALA was filtered to align key MRX eligibility criteria. The index time was determined via maximum likelihood estimation. Balance among baseline (BL) variables was assessed. Selection of patients and index time was blinded to clinical outcomes. Sensitivity and subgroup analyses, and adjustments for covariates were applied. Missing outcomes data were censored at last contact.

SMILES: CCCCC1(CCCC)CS(=O)(=O)c2ccc(N(C)C)cc2[C@@H](c2ccc(OCc3ccc(C[N+]45CCN(CC4)CC5)cc3)cc2)[C@H]1O [maralixibat]
- overall average ItchRO score reduction ([1]; at week 48): 1.6 points
- ItchRO score reduction of the one participant who normalized ([1]; one participant): −3.5 points
- pruritus, using ItchRO and CSS scores ([1]; result in words): significant and clinically meaningful improvements in pruritus
- Change in ItchRO score (points) ([1]; sBA reduction (%) 50, N 8): −1.90 points
- Change in ItchRO score (points) ([1]; sBA reduction (%) 60, N 8): −2.12 points
- Change in ItchRO score (points) ([1]; sBA reduction (%) 70, N 6): −2.31 points
- Change in ItchRO score (points) ([1]; sBA reduction (%) 80, N 3): −2.79 points
- Change in ItchRO score (points) ([1]; sBA reduction (%) 90, N 1): −2.71 points
- HRQoL at Week 48 (mean ± SD), Family Impact Scale ([2]; ItchRO Non-Responders): 54.7 ± 20.0
- HRQoL at Week 48 (mean ± SD), Multidimensional Fatigue Scale ([2]; ItchRO Non-Responders): 64.2 ± 15.1
- HRQoL at Week 48 (mean ± SD), PedsQL Generic Core Scale ([2]; ItchRO Non-Responders): 62.4 ± 14.5
- HRQoL change from baseline to Week 48 (mean ± SD), Family Impact Scale ([2]; ItchRO Non-Responders): 3.9 ± 7.8
- HRQoL change from baseline to Week 48 (mean ± SD), Multidimensional Fatigue Scale ([2]; ItchRO Non-Responders): −3.1 ± 19.8
- HRQoL change from baseline to Week 48 (mean ± SD), PedsQL Generic Core Scale ([2]; ItchRO Non-Responders): 1.2 ± 11.1
- HRQoL at Week 48 (mean ± SD), Family Impact Scale ([2]; ItchRO Responders): 73.9 ± 19.6
- HRQoL at Week 48 (mean ± SD), Multidimensional Fatigue Scale ([2]; ItchRO Responders): 76.2 ± 15.1
- HRQoL at Week 48 (mean ± SD), PedsQL Generic Core Scale ([2]; ItchRO Responders): 70.4 ± 15.7
- HRQoL change from baseline to Week 48 (mean ± SD), Family Impact Scale ([2]; ItchRO Responders): 17.8 ± 23.4
- HRQoL change from baseline to Week 48 (mean ± SD), Multidimensional Fatigue Scale ([2]; ItchRO Responders): 25.8 ±23.0
- HRQoL change from baseline to Week 48 (mean ± SD), PedsQL Generic Core Scale ([2]; ItchRO Responders): 11.6 ± 20.3
- Beta, ItchRO treatment response at week 48 Yes vs No, Multidimensional Fatigue Scale ([2]; multivariate regression, adjusted for baseline HRQoL, N = 21, CI −2.49, 30.32): 13.92
- Beta, ItchRO treatment response at week 48 Yes vs No, Family Impact Scale ([2]; multivariate regression, adjusted for baseline HRQoL, N = 26, CI 1.01, 32.68): 16.85
- Beta, ItchRO treatment response at week 48 Yes vs No, PedsQL Generic Core Scale ([2]; multivariate regression, adjusted for baseline HRQoL, N = 27, CI −3.86, 21.38): 8.76
- HRQoL change from baseline to week 48 across all scales ([2]; non-responders, result in words): No clinically meaningful change
- average increase of Family Impact score, responders compared with non-responders ([2]; over the 48 weeks, controlling for baseline FI score): 17 points and 16.9 points
- average increase of Multidimensional Fatigue total score, responders compared with non-responders ([2]; over the 48 weeks, p=0.11): 13.9 points
- average increase of PedsQL Generic Core Total Scale Score, responders compared with non-responders ([2]; over the 48 weeks, p=0.19): 8.8 points
- Difference in change from baseline to week 48, HRQoL item Difficulty steeping through the night ([2]; responders vs non-responders): 52.9
- Difference in change from baseline to week 48, HRQoL item Feeling tired ([2]; responders vs non-responders): 40.1
- Difference in change from baseline to week 48, HRQoL item Feeling tired upon waking ([2]; responders vs non-responders): 72.4
- Difference in change from baseline to week 48, HRQoL item Steeping a lot ([2]; responders vs non-responders): 55.2
- Difference in change from baseline to week 48, HRQoL item Taking a lot of naps ([2]; responders vs non-responders): 40.4
- Difference in change from baseline to week 48, HRQoL item Trouble sleeping ([2]; responders vs non-responders): 45.4
- pruritus at week 48 of the ICONIC study ([2]; result in words): significant improvements in pruritus
- patients who achieved ItchRO treatment response (≥1 point reduction) ([2]; week 48, 27 patients): 74%
- crude 6-year EFS ([3]; MRX cohort, patients with ALGS (GALA control 50%)): 73%
- EFS hazard ratio (HR), MRX cohort vs GALA control ([3]; adjusted for age, sex, TB, ALT, 95% CI:0.189-0.491, p<0.0001): 0.305
